From PubChem BioAssay (NCI)
Where “and” joins values, the source holds several entries; their conditions need not be identical. Equal values may be shown once.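 1) Cells in 96-well plates. 2) Compound, 48 h, 5 concentrations. 3) Linear interpolation between surrounding doses. 4) Unreached endpoint = highest concentration. GI50 marks 50% less growth. TGI: total growth inhibition.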

What was measured:
Test in all cases: inhibition of tumour cell growth, NCI panel, 48 h
RXF 393 renal = test system: RXF 393 renal
DU-145 prostate = test system: DU-145 prostate
A498 renal = test system: A498 renal
SK-MEL-2 melanoma = test system: SK-MEL-2 melanoma
EKVX NSCLC = test system: EKVX NSCLC
MDA-N = test system: MDA-N
TK-10 renal = test system: TK-10 renal
M14 melanoma = test system: M14 melanoma
HOP-92 NSCLC = test system: HOP-92 NSCLC
T-47D breast = test system: T-47D breast

Structure (SMILES)	TGI (RXF 393 renal) [µM]	TGI (DU-145 prostate) [µM]	TGI (A498 renal) [µM]	TGI (SK-MEL-2 melanoma) [µM]	TGI (EKVX NSCLC)	TGI (MDA-N) [µM]	TGI (TK-10 renal) [µM]	TGI (M14 melanoma)	TGI (HOP-92 NSCLC) [µM]	TGI (T-47D breast)	GI50 (EKVX NSCLC) [µM]
N#Cc1nsnc1-c1nc(-c2nsnc2C#N)nc(-c2nsnc2C#N)n1	> 100	> 100	> 100	> 100	> 100 µM	> 100	> 100				
CC(C)(C)OC(=O)/C=C/C(=O)O/C=C/[N+](=O)[O-]	> 100	> 100	> 100		> 100 µM	> 100	> 100	> 100 µM	> 100		
Nc1ccccc1Sc1ccc(Cl)cc1	32.1		> 100	87.8	76.9 µM		> 100	> 100 µM	41.1		
O=[N+]([O-])C(=C/C1CCCCC1)/C(=C\C1CCCCC1)[N+](=O)[O-]	3.93	26.7	30	37.8	24.9 µM		16.8	22.3 µM	20.2	38 µM	
O=C(c1ccc(Cl)cc1)N(C(=S)N1CCN(c2ccccc2)CC1)c1ccccc1	> 100			> 100			> 100	> 100 µM	> 100		
C=C1CC(CNc2cc(Cl)nc(N)n2)C1	> 100	> 100	76.3	> 100	> 100 µM	> 100	> 100		> 100		
COC(=O)CC1(O)C(C=C(C)C)C(C(=O)OC)C(=O)C(C(=O)OC)C1C(=O)OC (configuration not stated)	> 100	> 100	> 100	> 100	> 100 µM	> 100	> 100	> 100 µM	> 100		
CC(=O)/C=C/c1c[nH]c(=O)[nH]c1=O	416		566	444	570 µM				102		
CC1CSc2nc3[nH]c(=S)[nH]c3c(=O)n2C1 (configuration not stated)	> 100	> 100	> 100		> 100 µM		> 100			> 100 µM	
CC1=CC[C@H](C)C(C)(C)C1/C=C/C(C)=C/CC[C@@]1(CO)[C@H](CCCO)/C(=C(/C)C=O)CC[C@]1(C)O (some centres not stated)	28.1			29.5	4.48 µM		15.3	12.3 µM			
N#C[C@](CO)(NC(=O)OCc1ccccc1)C(F)F	> 100	> 100	> 100	> 100	> 100 µM		> 100	> 100 µM	> 100	> 100 µM	
COc1ccccc1/C=C1/Sc2scc(CC(=O)Nc3ccccc3)[n+]2C1=O	80.8	> 100		73.3	> 100 µM	69.9	74.3	> 100 µM	52.3		
CSc1nc(-c2cc3c(c(SC)n2)CCC3)cc2c1CCC2	> 100	> 100	> 100	> 100	> 100 µM	> 100	> 100	> 100 µM			
CCCC(=O)N[C@@H](Cc1cc(I)c(O)c(I)c1)C(=O)NCCCNCCCCNCCCNC(=O)[C@@H](N)CCCN=C(N)N	> 100				> 100 µM		> 100	> 100 µM			
COc1cccc(NC(=O)N/C(=C/c2ccc(N(CCC#N)CCC#N)cc2)NC(=O)c2cc([N+](=O)[O-])ccc2Cl)c1	> 100			> 100	> 100 µM		> 100		> 100		
O=C(/C=C/c1ccc(Cl)c(Cl)c1)CCN1CCN(CCC(=O)/C=C/c2ccc(Cl)c(Cl)c2)CC1	38.9	54.4	> 100	92.6	> 100 µM		36.6	35.6 µM	64.8	77.4 µM	
C/C(=C1/N=C(c2cc([N+](=O)[O-])ccc2Cl)N(C2=CC=C(Cl)CC2)C1=O)c1cc2ccccc2oc1=O			> 100		> 100 µM			> 100 µM			
CCCN(CCC)C(=O)Cc1c2n(c3ccccc13)Cc1ccccc1-2	> 100			> 100	> 100 µM		> 100	> 100 µM	57.7		
O=[N+]([O-])c1cccc2nc3ccccc3c(NCCNCCO)c12	0.0205		0.0264	0.00744	0.286 µM and 0.181 µM			0.0236 µM and 0.0101 µM	0.0237	0.101 µM and 0.0533 µM	0.0306
Cc1cc(S(N)(=O)=O)c(S/C(=N\Nc2ccc([N+](=O)[O-])cc2)c2ccc(Cl)cc2)cc1Cl	3.49	5.51	21.8	9.58	28.3 µM		3.54	> 100 µM	5.4	> 100 µM	
COc1cc(/C=C2\CCc3cc(OC)c(OC)cc3C2=O)cc(OC)c1	> 42.4	78.5	39.8	> 57.8	> 100 µM		> 100	> 100 µM	> 100	62.1 µM	
